Measurements from the supplement of paper PMC10627819.

Columns and labels:
[1] = test system: B. subtilis 168; assay: fitness (endpoint OD595 vs no drug) (fraction); higher = more growth
In short: (§1)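 Background-subtracted growth curves were the basis for fitness, taken as the optical density at entry into stationary phase over the robust mean of no-drug control wells. A cap of 1 was applied. The curves came from OD595 readings every 30 min for 14 h at 37 °C, in 384-well plates seeded at OD595 0.01 with 30 µl, or 55 µl for S. pneumoniae.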

[2] = test system: S. aureus DSM 20231; assay: as above
In short: as §1

[3] = test system: S. aureus Newman; assay: as above
In short: as §1

[4] = test system: S. pneumoniae D39V; assay: as above
In short: as §1

[5] = test system: B. subtilis 168; assay: Bliss interaction score (quartile over a dose matrix) (fitness difference); higher = more antagonism (negative = synergy)
In short: (§2)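 Each OD595 reading at entry into stationary phase was scaled to the robust mean of the untreated wells on its plate, with a ceiling of 1. These ratios define fitness, and single-drug fitness was inferred from combinations. The Bliss score compares observed fitness with the product-based expectation and is reported as quartiles across all replicate types, technical, biological and donor/recipient.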

[6] = test system: S. aureus DSM 20231; assay: as above
In short: as §2

[7] = test system: S. aureus Newman; assay: as above
In short: as §2

[8] = test system: S. pneumoniae D39V; assay: as above
In short: as §2
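Throughout, for Bliss interaction score (quartile over a dose matrix): first quartile when negative (synergy) and third quartile when positive (antagonism).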

CO/N=C(\C(=O)N[C@@H]1C(=O)N2C(C(=O)O)=C(COC(C)=O)CS[C@H]12)c1csc(N)n1 [Cefotaxime] + COc1cccc2c1C(=O)c1c(O)c3c(c(O)c1C2=O)C[C@@](O)(C(=O)CO)C[C@@H]3O[C@H]1C[C@H](N)[C@H](O)[C@H](C)O1 [Doxorubicin]
fitness, one replicate
Conditions	first compound 0.00775 µg/mL	first compound 0.0155 µg/mL	first compound 0.031 µg/mL	first compound 0.0625 µg/mL	first compound 0.125 µg/mL	first compound 0.25 µg/mL	first compound 0.625 µg/mL	first compound 1.25 µg/mL	first compound 2.5 µg/mL
[1], partner 0.625 µg/mL	0.844	0.659	0.476	0.382	0.227	0.187	–	–	–
[1], partner 1.25 µg/mL	0.771	0.571	0.371	0.337	0.232	0.196	–	–	–
[1], partner 2.5 µg/mL	0.35	0.0312	0.0055	0.0527	0.048	0.0308	–	–	–
[3], partner 0.625 µg/mL	–	–	–	–	–	–	0.0853	0.0304	0.0624
[3], partner 1.25 µg/mL	–	–	–	–	–	–	0.0701	0.0126	0.0183
[3], partner 2.5 µg/mL	–	–	–	–	–	–	0.0451	0	0.0123

Conditions	fitness
[1], first compound 0.5 µg/mL, partner 0.625 µg/mL	0.183
[1], first compound 0.5 µg/mL, partner 1.25 µg/mL	0.16
[1], first compound 0.5 µg/mL, partner 2.5 µg/mL	0.0662
[1], first compound 1 µg/mL, partner 0.625 µg/mL	0.106
[1], first compound 1 µg/mL, partner 1.25 µg/mL	0.0654
[1], first compound 1 µg/mL, partner 2.5 µg/mL	0.0366
[1], first compound 2 µg/mL, partner 0.625 µg/mL	0.0861
[1], first compound 2 µg/mL, partner 1.25 µg/mL	0.0715
[1], first compound 2 µg/mL, partner 2.5 µg/mL	0.0755
[2], first compound 0.039 µg/mL, partner 0.625 µg/mL	0.717
[2], first compound 0.039 µg/mL, partner 1.25 µg/mL	0.707
[2], first compound 0.039 µg/mL, partner 2.5 µg/mL	0.633
[2], first compound 0.078 µg/mL, partner 0.625 µg/mL	0.67
[2], first compound 0.078 µg/mL, partner 1.25 µg/mL	0.67
[2], first compound 0.078 µg/mL, partner 2.5 µg/mL	0.589
[2], first compound 0.156 µg/mL, partner 0.625 µg/mL	0.602
[2], first compound 0.156 µg/mL, partner 1.25 µg/mL	0.613
[2], first compound 0.156 µg/mL, partner 2.5 µg/mL	0.583
[2], first compound 0.312 µg/mL, partner 0.625 µg/mL	0.537
[2], first compound 0.312 µg/mL, partner 1.25 µg/mL	0.61
[2], first compound 0.312 µg/mL, partner 2.5 µg/mL	0.572
[3], first compound 0.078 µg/mL, partner 0.625 µg/mL	0.613
[3], first compound 0.078 µg/mL, partner 1.25 µg/mL	0.68
[3], first compound 0.078 µg/mL, partner 2.5 µg/mL	0.663
[3], first compound 0.156 µg/mL, partner 0.625 µg/mL	0.563
[3], first compound 0.156 µg/mL, partner 1.25 µg/mL	0.592
[3], first compound 0.156 µg/mL, partner 2.5 µg/mL	0.618
[3], first compound 0.312 µg/mL, partner 0.625 µg/mL	0.458
[3], first compound 0.312 µg/mL, partner 1.25 µg/mL	0.45
[3], first compound 0.312 µg/mL, partner 2.5 µg/mL	0.408
[4], first compound 0.0018 µg/mL, partner 0.25 µg/mL	0.944
[4], first compound 0.0018 µg/mL, partner 0.5 µg/mL	0.963
[4], first compound 0.0018 µg/mL, partner 1 µg/mL	0.863
[4], first compound 0.0035 µg/mL, partner 0.25 µg/mL	0.929
[4], first compound 0.0035 µg/mL, partner 0.5 µg/mL	0.944
[4], first compound 0.0035 µg/mL, partner 1 µg/mL	0.831
[4], first compound 0.007 µg/mL, partner 1 µg/mL	0.731

Conditions	Bliss interaction score
[5]	-0.17
[6]	-0.086
[7]	0.0946
[8]	0.0436

COc1cccc2c1C(=O)c1c(O)c3c(c(O)c1C2=O)C[C@@](O)(C(=O)CO)C[C@@H]3O[C@H]1C[C@H](N)[C@H](O)[C@H](C)O1 [Doxorubicin] + CC1=C\[C@@H](O)CC(=O)Cc2nc(co2)C(=O)N2CCC=C2C(=O)O[C@H](C(C)C)[C@H](C)/C=C/C(=O)NC\C=C\1 [Virginiamycin M1]
fitness
Conditions	first compound 0.25 µg/mL	first compound 0.5 µg/mL	first compound 0.625 µg/mL	first compound 1 µg/mL	first compound 1.25 µg/mL	first compound 2.5 µg/mL
[1], partner 0.0625 µg/mL	–	–	0.975	–	0.901	0.653
[1], partner 0.125 µg/mL	–	–	0.939	–	0.904	0.639
[1], partner 0.25 µg/mL	–	–	0.96	–	0.911	0.7
[2], partner 0.0625 µg/mL	–	–	0.874	–	0.872	0.779
[2], partner 0.125 µg/mL	–	–	0.944	–	0.903	0.82
[2], partner 0.25 µg/mL	–	–	0.873	–	0.862	0.802
[3], partner 0.0625 µg/mL	–	–	0.76	–	0.766	0.768
[3], partner 0.125 µg/mL	–	–	0.795	–	0.802	0.756
[3], partner 0.25 µg/mL	–	–	0.788	–	0.784	0.746
[4], partner 0.5 µg/mL	0.964	0.961	–	0.969	–	–
[4], partner 1 µg/mL	0.997	≥ 1	–	0.951	–	–
[4], partner 2 µg/mL	0.92	0.9	–	0.898	–	–

fitness, one replicate
Conditions	first compound 0.25 µg/mL	first compound 0.5 µg/mL	first compound 0.625 µg/mL	first compound 1 µg/mL	first compound 1.25 µg/mL	first compound 2.5 µg/mL
[2], partner 0.5 µg/mL	–	–	0.873	–	0.803	0.706
[2], partner 1 µg/mL	–	–	0.769	–	0.708	0.761
[3], partner 0.5 µg/mL	–	–	0.81	–	0.809	0.703
[3], partner 1 µg/mL	–	–	0.924	–	0.871	0.793
[3], partner 2 µg/mL	–	–	0.837	–	0.696	0.664
[4], partner 0.15 µg/mL	0.86	0.865	–	0.911	–	–
[4], partner 0.3 µg/mL	0.823	0.836	–	0.888	–	–

Conditions	Bliss interaction score
[5]	0.0827
[6]	-0.0467
[7]	-0.0655
[8]	0.0614

COc1ccc(C[C@H](N)C(=O)N[C@H]2[C@@H](O)[C@H](n3cnc4c(N(C)C)ncnc43)O[C@@H]2CO)cc1 [Puromycin] + CN[C@@H]1[C@H](O)[C@H](NC)[C@H]2O[C@@]3(O)C(=O)C[C@@H](C)O[C@H]3O[C@@H]2[C@H]1O [Spectinomycin]
fitness
Conditions	first compound 0.39 µg/mL	first compound 0.78 µg/mL	first compound 1 µg/mL	first compound 1.56 µg/mL	first compound 2 µg/mL	first compound 4 µg/mL
[1], partner 2 µg/mL	0.951	0.94	–	0.979	–	–
[1], partner 4 µg/mL	0.948	0.952	–	0.963	–	–
[1], partner 8 µg/mL	0.859	0.881	–	0.848	–	–
[2], partner 4 µg/mL	0.959	0.943	–	0.965	–	–
[2], partner 8 µg/mL	0.957	0.998	–	0.956	–	–
[2], partner 16 µg/mL	0.943	0.884	–	0.888	–	–
[3], partner 4 µg/mL	0.912	0.922	–	0.964	–	–
[3], partner 8 µg/mL	0.962	0.95	–	0.937	–	–
[3], partner 16 µg/mL	0.914	0.904	–	0.873	–	–
[4], partner 4 µg/mL	–	–	0.931	–	0.951	0.772
[4], partner 8 µg/mL	–	–	0.877	–	0.892	0.728

one replicate
Conditions	fitness
[2], first compound 0.39 µg/mL, partner 32 µg/mL	0.741
[2], first compound 0.39 µg/mL, partner 64 µg/mL	0.11
[2], first compound 0.78 µg/mL, partner 32 µg/mL	0.802
[2], first compound 0.78 µg/mL, partner 64 µg/mL	0.172
[2], first compound 1.56 µg/mL, partner 32 µg/mL	0.757
[2], first compound 1.56 µg/mL, partner 64 µg/mL	0.142
[2], first compound 3.12 µg/mL, partner 4 µg/mL	0.923
[2], first compound 3.12 µg/mL, partner 8 µg/mL	0.948
[2], first compound 3.12 µg/mL, partner 16 µg/mL	0.794
[2], first compound 6.24 µg/mL, partner 4 µg/mL	0.629
[2], first compound 6.24 µg/mL, partner 8 µg/mL	0.347
[2], first compound 6.24 µg/mL, partner 16 µg/mL	0.183
[3], first compound 0.39 µg/mL, partner 32 µg/mL	0.664
[3], first compound 0.39 µg/mL, partner 64 µg/mL	0.15
[3], first compound 0.78 µg/mL, partner 32 µg/mL	0.618
[3], first compound 0.78 µg/mL, partner 64 µg/mL	0.0783
[3], first compound 1.56 µg/mL, partner 32 µg/mL	0.569
[3], first compound 1.56 µg/mL, partner 64 µg/mL	0.0656
[4], first compound 1 µg/mL, partner 16 µg/mL	0.867
[4], first compound 2 µg/mL, partner 16 µg/mL	0.863
[4], first compound 4 µg/mL, partner 16 µg/mL	0.613

Conditions	Bliss interaction score
[5]	0.0392
[6]	0.0575
[7]	0.0745
[8]	0.0718

C[C@@H]1O[C@@H]1P(=O)(O)O [Fosfomycin] + C[n+]1ccc(-c2cc[n+](C)cc2)cc1 [Paraquat]
fitness
Conditions	partner 1.25 µg/mL	partner 1.5 µg/mL	partner 2.5 µg/mL	partner 3 µg/mL	partner 5 µg/mL	partner 6 µg/mL
[1], first compound 1.562 µg/mL	0.681	–	0.673	–	0.567	–
[1], first compound 3.124 µg/mL	0.529	–	0.598	–	0.519	–
[1], first compound 6.248 µg/mL	0.381	–	0.386	–	0.3	–
[2], first compound 0.781 µg/mL	0.717	–	0.7	–	0.702	–
[2], first compound 1.562 µg/mL	0.593	–	0.551	–	0.585	–
[2], first compound 3.124 µg/mL	0.481	–	0.51	–	0.476	–
[3], first compound 0.781 µg/mL	0.542	–	0.546	–	0.574	–
[3], first compound 1.562 µg/mL	0.468	–	0.47	–	0.483	–
[3], first compound 3.124 µg/mL	0.0901	–	0.116	–	0.169	–
[4], first compound 1.25 µg/mL	–	0.985	–	0.959	–	0.985
[4], first compound 2.5 µg/mL	–	0.974	–	0.973	–	0.97
[4], first compound 5 µg/mL	–	0.812	–	0.831	–	0.791

Conditions	Bliss interaction score
[5]	-0.0619
[6]	-0.101
[7]	-0.12
[8]	-0.0411
